Tests used:
[1] = Static CytoSorb adsorption setup (spiked plasma with CytoSorb resin); type: in vitro ADME, human; settings: plasma:resin 1:10 v/v, 60 min, 37 °C, n = 3
Method: Plasma was obtained by centrifugation (3500× g, 10 min) from citrate-anticoagulated human whole blood and spiked with immunosuppressants to defined target concentrations (Table 1). To evaluate adsorption, plasma was incubated with the CytoSorb resin at 1:10 (v/v) for 60 min at 37 °C on a roller mixer. In parallel, a separate aliquot of spiked plasma was incubated with autologous blood cells (1:1, v/v) to assess cellular uptake of immunosuppressants. Untreated spiked plasma served as control (Figure 1a). Samples were collected before and after incubation for subsequent analysis.
(§1) MPA was determined using a validated test for the Cobas c311 autoanalyzer from Roche (Basel, Switzerland). 6-MP was quantified by reversed-phase HPLC [17, 18]. After precipitation of the plasma sample with ice cold methanol in ratio 1:5, 30 µL of the supernatant was injected into a Nukleosil 100-5C18, 4.6 × 150 mm C18 column (Macherey-Nagel, Düren, Germany), combined with an Onyx Monolithic C18, 4.6 × 5 mm guard column (Phenomenex, Torrance, CA, USA). The mobile phase consisted of methanol and deionised water (50:50) which was continuously pumped with a flow rate of 0.8 mL/min for five minutes. 6-MP was quantified with a retention time of 2.3 min using an UV detector (325 nm). The quantification of cytokines was determined by Magnetic Luminex Assay with a human premixed Multi Analyte Kit (R&D Systems, Minneapolis, MN, USA). The urea, albumin and total protein levels were measured with the cobas c311 automated analyzer with corresponding test kits from Roche (Penzberg, Germany).

[2] = Determination of protein binding by ultrafiltration; type: in vitro ADME; settings: human plasma, ultrafiltration 30 kDa cutoff
Method: To assess protein binding of the tested immunosuppressants, human plasma was spiked with the respective drugs and urea as a freely diffusible control. Samples were then subjected to ultrafiltration (30 kDa cutoff, 15,000× g, 20 min). The protein-bound fraction was calculated using the following formula:(1) protein binding %= 1−Cfiltrate/Cplasma where cplasma is the concentration of each compound in plasma and cfiltrate is its concentration in the ultrafiltrate.

[3] = Dynamic CytoSorb adsorption setup (scaled-down circuit, whole blood); type: in vitro ADME, human; settings: for mean clearance rate: CytoSorb treatment, at 15 min, Equation (2); for adsorption (removal) by CytoSorb: dynamic ex vivo circuit, 400 mL human whole blood, 30 mL cartridge, 4 h
Method: To quantify the depletion of selected immunosuppressants during CytoSorb treatment under dynamic conditions, a scaled-down extracorporeal circulation system was established, consisting of a 30 mL CytoSorb adsorption cartridge and a pediatric tubing set filled with 400 mL of freshly drawn human whole blood (Figure 1b). To distinguish between drug removal by adsorption versus uptake by blood components, a control circuit with an identical setup but an empty cartridge was run in parallel for each experiment. Whole blood from two healthy donors of the same blood group was pooled, anticoagulated with citrate (final concentration: 7 mM), spiked with the immunosuppressants, and divided into two 400 mL blood bags.
Prior to circulation, the entire system was flushed with isotonic saline. Then, one of the prepared blood bags (Group 1 or Group 2) was connected to the circuit and circulated for 30 min at 37 °C without the adsorber cartridge to allow for equilibration. Following this equilibration, a baseline sample (0 min) was collected, and the adsorption column was introduced into the circuit. In the adsorption circuit, samples were collected at 15, 30, 60, 120, 180 and 240 min. In the control circuit, samples were taken at baseline and after 240 min. All blood samples were centrifuged (3500× g, 10 min) to separate plasma, which was stored at −80 °C until further analysis.
(§2) The clearance (C) of each compound during both the dialysis and the dynamic CytoSorb experiments was calculated using the first-order exponential decay formula:(2) C = V/t ×lnCo/Ct where V = plasma volume, t = treatment time [min], C0 = concentration before starting treatment, Ct = concentration at time t.
as §1

[4] = Removal of immunosuppressants by chronic dialysis (ex vivo, plasma); type: in vitro ADME, human
Method: (§3) To evaluate the effect of dialysis under clinically relevant conditions, both chronic and acute dialysis settings were simulated using standard Fresenius systems. In all experiments, 1.5 L of citrated human plasma was dialyzed against calcium-free dialysate at 37 °C.
(§4) Prior to circulation, the systems were flushed with 2 L of isotonic saline. Plasma samples were collected at defined time points (15–480 min) and analyzed for immunosuppressants, urea, and albumin. Chronic dialysis represents intermittent high-flow conditions, whereas acute dialysis mimics continuous low-flow therapy used in critically ill patients.
as §2

[5] = Removal of immunosuppressants by acute dialysis (CVVHD, ex vivo, plasma); type: in vitro ADME, human
Method: as §3, §4, §2

[6] = Whole blood cell model: immunosuppressant serum levels after CytoSorb treatment; type: in vitro ADME, human; settings: overnight incubation, p < 0.05, n = 6
Method: To investigate whether the in vitro depletion of immunosuppressants by CytoSorb affects immunosuppression, a whole blood cell model was established. The experiment was conducted over two consecutive days. A graphical overview of the setup is provided in Supplementary Figure S1. On day one, freshly drawn human whole blood was incubated overnight at 37 °C with various immunosuppressants, either individually or in combination, to allow for sufficient drug exposure prior to CytoSorb treatment.
Subsequently, the blood was split into two experimental groups: one was treated with CytoSorb in a batch setup, and the other served as an untreated control, incubated under identical conditions at 37 °C on a roller mixer. Following treatment, all samples were allowed to rest for 4 h. After the resting period, blood samples were stimulated with either lipopolysaccharide (LPS) E. coli or with anti-CD3 antibodies. LPS primarily activates monocytes and neutrophils via the TLR4/CD14/MD2 complex, while anti-CD3 specifically stimulates T cells. The stimulation was carried out for 4 h at 37 °C on a roller mixer. Thereafter, the blood samples were centrifuged, and the plasma was collected and stored at −80 °C. Leukocyte activation was assessed by quantification of IL-1β, IL-6, IL-8, and TNF-α.
as §1

[7] = test system: human whole blood; assay: Whole blood cell model: LPS stimulation, cytokine measurement; type: cell-based; settings: + CytoSorb
Method: (§5) Subsequently, the blood was split into two experimental groups: one was treated with CytoSorb in a batch setup, and the other served as an untreated control, incubated under identical conditions at 37 °C on a roller mixer. Following treatment, all samples were allowed to rest for 4 h. After the resting period, blood samples were stimulated with either lipopolysaccharide (LPS) E. coli or with anti-CD3 antibodies. […] The stimulation was carried out for 4 h at 37 °C on a roller mixer. Thereafter, the blood samples were centrifuged, and the plasma was collected and stored at −80 °C. Leukocyte activation was assessed by quantification of IL-1β, IL-6, IL-8, and TNF-α.

[8] = test system: human whole blood; assay: Whole blood cell model: anti-CD3 stimulation, cytokine measurement; type: cell-based; settings: + Anti-CD3, + CytoSorb
Method: as §5

[9] = design: method as in earlier work; settings: literature; ref 23 (methylprednisolone), 24 (mycophenolate), 41 (6-mercaptopurine); cited from earlier work
[10] = literature; ref 21 (6-MP), 22 (CsA), 23 (MPR), 24 (MPA), 25 (TAC); cited from earlier work

Compound | reduction of level in plasma by CytoSorb [1] | mean clearance rate [3] | adsorption (removal) by CytoSorb [3] [%] | removal by dialysis (in words) [4] | reduction in serum level following CytoSorb treatment (in words) [6] | IL-1β serum level ([7]; test 1) [pg/mL] | IL-6 serum level ([7]; test 1) [pg/mL] | IL-8 serum level ([7]; test 1) [pg/mL] | TNF-α serum level ([7]; test 1) [pg/mL] | IL-1β serum level ([7]; test 2) [pg/mL] | IL-6 serum level ([7]; test 2) [pg/mL] | IL-8 serum level ([7]; test 2) [pg/mL] | TNF-α serum level ([7]; test 2) [pg/mL] | IL-1β serum level ([7]; test 3) [pg/mL] | IL-6 serum level ([7]; test 3) [pg/mL] | IL-8 serum level ([7]; test 3) [pg/mL] | TNF-α serum level ([7]; test 3) [pg/mL] | IL-1β serum level ([8]; test 1) [pg/mL] | IL-6 serum level ([8]; test 1) [pg/mL] | IL-8 serum level ([8]; test 1) [pg/mL] | further results
C=CC[C@@H]1/C=C(\C)C[C@H](C)C[C@H](OC)[C@H]2O[C@@](O)(C(=O)C(=O)N3CCCC[C@H]3C(=O)O[C@H](/C(C)=C/[C@@H]3CC[C@@H](O)[C@H](OC)C3)[C@H](C)[C@@H](O)CC1=O)[C@H](C)C[C@@H]2OC [TAC, tacrolimus] | not affected | around 15 mL/min | 18 ± 16 | not effectively removed | no significant adsorption | 412 | 7095 | 7756 | 1967 | 62 | 584 | 2388 | 1337 | 646 | 23302 | 50044 | 690 | 18 | 28 | 1654 | Protein Binding in Plasma, Current Study [2]: 97.9 ± 10.9%; reduction of serum levels by CytoSorb (abstract) ([3]; as stated in the abstract, experiment not specified): no significant effect; clearance ([4]; throughout): below 2 mL/min; removal by dialysis (in words) [5]: not effectively removed; TNF-α serum level ([8]; test 1): 38 pg/mL; IL-1β serum level ([8]; test 2): 93 pg/mL; IL-6 serum level ([8]; test 2): 773 pg/mL; IL-8 serum level ([8]; test 2): 8613 pg/mL; TNF-α serum level ([8]; test 2): 53 pg/mL; IL-1β serum level ([8]; test 3): 268 pg/mL; IL-6 serum level ([8]; test 3): 2598 pg/mL; IL-8 serum level ([8]; test 3): 25920 pg/mL; TNF-α serum level ([8]; test 3): 85 pg/mL
COc1c(C)c2c(c(O)c1C/C=C(\C)CCC(=O)O)C(=O)OC2 [MPA, mycophenolic acid] | 37 ± 6% | approximately 44 mL/min | 76 ± 2 | only slightly reduced | significant reduction | 992 | 3303 | 4068 | 3390 | 112 | 627 | 2855 | 1274 | 1465 | 16855 | 15529 | 720 | 0 | 4 | 564 | fraction unbound ([2]; read-out: Protein Binding in Plasma, Current Study (converted)): 0.021; TNF-α serum level ([8]; test 1): 107 pg/mL; IL-1β serum level ([8]; test 2): 115 pg/mL; IL-6 serum level ([8]; test 2): 645 pg/mL; IL-8 serum level ([8]; test 2): 3704 pg/mL; TNF-α serum level ([8]; test 2): 109 pg/mL; IL-1β serum level ([8]; test 3): 170 pg/mL; IL-6 serum level ([8]; test 3): 952 pg/mL; IL-8 serum level ([8]; test 3): 4924 pg/mL; TNF-α serum level ([8]; test 3): 55 pg/mL; volume of distribution (Vd) [9]: ≈ 3.6 L/kg; Protein Binding in Plasma, Reference [10]: 97 [24] %

From paper PMC12655457, “Does CytoSorb Interfere with Immunosuppression? A Pharmacokinetic and Functional Evaluation” (Pharmaceutics, 2025)
